Target: T1, USP1/UAF1 (Homo sapiens, UniProt O94782)
T1 construct: purchased R&D Systems
Experiment: Deubiquitination assay for USP1/UAF1 (ubiquitin-rhodamine 110 substrate)
Format: biochemical
Conditions: 0.5 nM USP1/UAF1, 150 nM ubiquitin-rhodamine, 50% inhibition compared to DMSO control
Protocol: Deubiquitination assay for USP1/UAF1: compounds described here were tested for their ability to inhibit USP1 deubiquitinase activity in this assay using ubiquitin-rhodamine 110 as the substrate. The assay was conducted in the assay buffer (50 mM Tris-HCl, pH 7.8, 0.5 mM EDTA, 0.1 mg/ml Bovine Serum Albumin, 1 mM DTT, 0.01% Tween-20) in 384 well plates. 0.5 nM USP1/UAF1 (R&D Systems) was incubated with compounds in dose response format for 10 minutes at room temperature. Then the reaction was initiated by addition of 150 nM ubiquitin-rhodamine (R&D Systems). The fluorescence intensity was read after 45 minutes at Ex488/Em535 by CLARIOstar (BMG Labtech). IC50 response curves were plotted.

T1 sequence (O94782 whole entry): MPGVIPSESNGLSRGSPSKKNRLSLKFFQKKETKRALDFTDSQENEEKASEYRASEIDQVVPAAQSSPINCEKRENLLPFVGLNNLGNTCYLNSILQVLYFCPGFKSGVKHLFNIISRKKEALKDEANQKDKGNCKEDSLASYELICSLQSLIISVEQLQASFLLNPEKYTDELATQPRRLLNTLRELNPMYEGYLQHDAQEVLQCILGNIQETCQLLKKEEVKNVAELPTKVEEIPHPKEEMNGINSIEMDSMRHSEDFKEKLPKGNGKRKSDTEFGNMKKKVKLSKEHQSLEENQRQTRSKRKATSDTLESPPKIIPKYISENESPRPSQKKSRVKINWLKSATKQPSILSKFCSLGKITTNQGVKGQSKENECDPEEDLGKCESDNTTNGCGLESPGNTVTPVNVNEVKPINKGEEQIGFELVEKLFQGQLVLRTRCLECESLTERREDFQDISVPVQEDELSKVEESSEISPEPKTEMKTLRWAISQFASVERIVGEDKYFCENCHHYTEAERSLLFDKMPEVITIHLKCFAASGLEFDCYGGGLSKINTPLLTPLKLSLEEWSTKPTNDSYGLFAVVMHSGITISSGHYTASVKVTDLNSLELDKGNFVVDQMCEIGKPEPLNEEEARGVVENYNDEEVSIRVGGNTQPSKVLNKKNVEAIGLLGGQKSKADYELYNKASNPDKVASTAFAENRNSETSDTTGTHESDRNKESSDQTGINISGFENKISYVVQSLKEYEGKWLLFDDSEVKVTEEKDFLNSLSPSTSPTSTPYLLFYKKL
T1 sequence (Q8TAF3 whole entry partner): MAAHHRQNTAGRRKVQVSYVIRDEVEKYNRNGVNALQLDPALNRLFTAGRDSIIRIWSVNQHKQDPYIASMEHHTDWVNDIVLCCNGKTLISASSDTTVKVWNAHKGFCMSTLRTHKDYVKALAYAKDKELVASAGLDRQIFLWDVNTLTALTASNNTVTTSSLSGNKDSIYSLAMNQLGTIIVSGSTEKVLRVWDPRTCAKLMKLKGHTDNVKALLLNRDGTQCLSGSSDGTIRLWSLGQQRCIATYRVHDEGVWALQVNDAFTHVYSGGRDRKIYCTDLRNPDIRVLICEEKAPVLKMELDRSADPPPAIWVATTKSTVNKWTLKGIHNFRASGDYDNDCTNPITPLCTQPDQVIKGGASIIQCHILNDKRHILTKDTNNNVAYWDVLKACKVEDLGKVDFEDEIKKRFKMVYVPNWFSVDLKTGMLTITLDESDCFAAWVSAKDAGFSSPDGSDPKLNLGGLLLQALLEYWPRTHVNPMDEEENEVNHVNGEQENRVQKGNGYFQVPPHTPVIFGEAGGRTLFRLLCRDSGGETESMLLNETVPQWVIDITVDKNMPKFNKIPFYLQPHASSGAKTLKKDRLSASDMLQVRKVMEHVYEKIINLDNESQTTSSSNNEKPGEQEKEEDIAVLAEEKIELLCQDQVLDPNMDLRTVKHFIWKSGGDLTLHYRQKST

Compound | IC50
1^6-cyclopropyl-4^4-(1-isopropyl-4-(trifluoromethyl)-1H-imidazol-2-yl)-2^1H-9-oxa-5-aza-2(6,1)-pyrazolo[3,4-d]pyrimidina-1(5,4)-pyrimidina-4(1,2)-benzenacyclononaphan-6-one [Example 15] | ≥ 1000 nM
CC(C)n1cc(C(F)(F)F)nc1-c1ccc2c(c1)OCCCCOc1ncnc(C3CC3)c1-c1ncc3cnn(c3n1)C2 [Example 3, 1^6-cyclopropyl-4^4-(1-isopropyl-4-(trifluoromethyl)-1H-imidazol-2-yl)-2^1H-5,10-dioxa-2(6,1)-pyrazolo[3,4-d]pyrimidina-1(5,4)-pyrimidina-4(1,2)-benzenacyclodecaphane] | ≥ 1000 nM
CC(C)n1cc(C(F)(F)F)nc1-c1ccc2c(c1)CCOc1ncnc(C3CC3)c1-c1ncc3cnn(c3n1)C2 [Example 4, 1^6-cyclopropyl-4^4-(1-isopropyl-4-(trifluoromethyl)-1H-imidazol-2-yl)-2^1H-7-oxa-2(6,1)-pyrazolo[3,4-d]pyrimidina-1(5,4)-pyrimidina-4(1,2)-benzenacycloheptaphane] | ≥ 1000 nM
CC(C)n1cc(C(F)(F)F)nc1-c1ccc2c(c1)OCC1(CC1)COc1ncnc(C3CC3)c1-c1ncc3cnn(c3n1)C2 [Example 12, 6′-cyclopropyl-4′-(1-isopropyl-4-(trifluoromethyl)-1H-imidazol-2-yl)spiro[cyclopropane-1,7′-5,9-dioxa-2(6,1)-pyrazolo[3,4-d]pyrimidina-1(5,4)-pyrimidina-4(1,2)-benzenacyclononaphane]] | 100 to 1000 nM
CC(C)n1cc(C(F)(F)F)nc1-c1ccc2c(c1)NCCOc1ncnc(C3CC3)c1-c1ncc3cnn(c3n1)C2 [Example 14, 1^6-cyclopropyl-4^4-(1-isopropyl-4-(trifluoromethyl)-1H-imidazol-2-yl)-2^1H-8-oxa-5-aza-2(6,1)-pyrazolo[3,4-d]pyrimidina-1(5,4)-pyrimidina-4(1,2)-benzenacyclooctaphane] | ≤ 100 nM
CC(C)n1cc(C(F)(F)F)nc1-c1ccc2c(c1)OCCOc1ncnc(C3CC3)c1-c1ncc3ccc(=O)n(c3n1)C2 [Example 16, 1^6-cyclopropyl-4^4-(1-isopropyl-4-(trifluoromethyl)-1H-imidazol-2-yl)-2^7,2^8-dihydro-5,8-dioxa-2(2,8)-pyrido[2,3-d]pyrimidina-1(5,4)-pyrimidina-4(1,2)-benzenacyclooctaphan-2^7-one] | ≤ 100 nM
CC(C)n1cc(C(F)(F)F)nc1-c1ccc2c(c1)OCCCOc1ncnc(C3CC3)c1-c1ncc3ccc(=O)n(c3n1)C2 [Example 17, 1^6-cyclopropyl-4^4-(1-isopropyl-4-(trifluoromethyl)-1H-imidazol-2-yl)-2^7,2^8-dihydro-5,9-dioxa-2(2,8)-pyrido[2,3-d]pyrimidina-1(5,4)-pyrimidina-4(1,2)-benzenacyclononaphan-2^7-one] | ≤ 100 nM
O=c1ccc2cnc3nc2n1Cc1ccc(-c2nc(C(F)(F)F)cn2C2CC2)cc1CCOc1c-3ncnc1C1CC1 [Example 18, 1^6-cyclopropyl-4^4-(1-cyclopropyl-4-(trifluoromethyl)-1H-imidazol-2-yl)-2^7,2^8-dihydro-7-oxa-2(2,8)-pyrido[2,3-d]pyrimidina-1(5,4)-pyrimidina-4(1,2)-benzenacycloheptaphan-2^7-one] | ≥ 1000 nM
CC(C)n1cc(C(F)(F)F)nc1-c1ccc2c(c1)OCCCNc1ncnc(C3CC3)c1-c1ncc3ccc(=O)n(c3n1)C2 [Example 19, 1^6-cyclopropyl-4^4-(1-isopropyl-4-(trifluoromethyl)-1H-imidazol-2-yl)-2^7,2^8-dihydro-5-oxa-9-aza-2(2,8)-pyrido[2,3-d]pyrimidina-1(5,4)-pyrimidina-4(1,2)-benzenacyclononaphan-2^7-one] | 100 to 1000 nM
CC(C)n1cc(C(F)(F)F)nc1-c1ccc2c(c1)NCCCOc1ncnc(C3CC3)c1-c1ncc3ccc(=O)n(c3n1)C2 [Example 20, 1^6-cyclopropyl-4^4-(1-isopropyl-4-(trifluoromethyl)-1H-imidazol-2-yl)-2^7,2^8-dihydro-9-oxa-5-aza-2(2,8)-pyrido[2,3-d]pyrimidina-1(5,4)-pyrimidina-4(1,2)-benzenacyclononaphan-2^7-one] | ≤ 100 nM
FC(F)(F)c1cn(C2CC2)c(-c2ccc3c(c2)OCCOc2ncnc(C4CC4)c2-c2ncc4ccc(n4n2)C3)n1 [Example 21, (Z)-1^6-cyclopropyl-4^4-(1-cyclopropyl-4-(trifluoromethyl)-1H-imidazol-2-yl)-5,8-dioxa-2(2,7)-pyrrolo[2,1-f][1,2,4]triazina-1(5,4)-pyrimidina-4(1,2)-benzenacyclooctaphane] | ≤ 100 nM
CC(C)n1cc(C(F)(F)F)nc1-c1ccc2c(c1)N(C)CCCOc1ncnc(C3CC3)c1-c1ncc3cnn(c3n1)C2 [Example 23, 1^6-cyclopropyl-4^4-(1-isopropyl-4-(trifluoromethyl)-1H-imidazol-2-yl)-5-methyl-2^1H-9-oxa-5-aza-2(6,1)-pyrazolo[3,4-d]pyrimidina-1(5,4)-pyrimidina-4(1,2)-benzenacyclononaphane] | ≥ 1000 nM
CC(C)n1cc(C(F)(F)F)nc1-c1ccc2c(c1)NCCOc1ncnc(C3CC3)c1-c1ncc3ccc(=O)n(c3n1)C2 [Example 24, 1^6-cyclopropyl-4^4-(1-isopropyl-4-(trifluoromethyl)-1H-imidazol-2-yl)-2^7,2^8-dihydro-8-oxa-5-aza-2(2,8)-pyrido[2,3-d]pyrimidina-1(5,4)-pyrimidina-4(1,2)-benzenacyclooctaphan-2^7-one] | ≤ 100 nM

The remaining lines, values ahead:

IC50 | Compound
≤ 100 nM | 1^6-cyclopropyl-4^4-(1-isopropyl-4-(trifluoromethyl)-1H-imidazol-2-yl)-2^1-methyl-2^1H-5,8-dioxa-2(5,3)-pyrazolo[4,3-d]pyrimidina-1(5,4)-pyrimidina-4(1,2)-benzenacyclooctaphane [Example 22]
≤ 100 nM | 1^6-cyclopropyl-4^4-(1-isopropyl-4-(trifluoromethyl)-1H-imidazol-2-yl)-2^1H-9-oxa-5-aza-2(6,1)-pyrazolo[3,4-d]pyrimidina-1(5,4)-pyrimidina-4(1,3)-benzenacyclonona-phane [Example 50]
≤ 100 nM | Cc1cnc2nc1NCc1ccc(-c3nc(C(F)(F)F)cn3C(C)C)cc1OCCOc1ncnc(C3CC3)c1-2 [Example 1, 1^6-cyclopropyl-5^4-(1-isopropyl-4-(trifluoromethyl)-1H-imidazol-2-yl)-2^5-methyl-6,9-dioxa-3-aza-1(5,4),2(2,4)-dipyrimidina-5(1,2)-benzenacyclononaphane]
≤ 100 nM | CC(C)n1cc(C(F)(F)F)nc1-c1ccc2c(c1)OCCOc1ncnc(C3CC3)c1-c1ncc3cnn(c3n1)C2 [Example 2, 1^6-cyclopropyl-4^4-(1-isopropyl-4-(trifluoromethyl)-1H-imidazol-2-yl)-2^1H-5,8-dioxa-2(6,1)-pyrazolo[3,4-d]pyrimidina-1(5,4)-pyrimidina-4(1,2)-benzenacyclooctaphane]
≤ 100 nM | CC(C)n1cc(C(F)(F)F)nc1-c1ccc2c(c1)OCCCOc1ncnc(C3CC3)c1-c1ncc3cnn(c3n1)C2 [Example 5, 1^6-cyclopropyl-4^4-(1-isopropyl-4-(trifluoromethyl)-1H-imidazol-2-yl)-2^1H-5,9-dioxa-2(6,1)-pyrazolo[3,4-d]pyrimidina-1(5,4)-pyrimidina-4(1,2)-benzenacyclononaphane]
≤ 100 nM | CC(C)c1cccc2c1-c1ncc3cnn(c3n1)Cc1ccc(-c3nc(C(F)(F)F)cn3C(C)C)cc1OCCO2 [Example 7, 1^6-isopropyl-4^4-(1-isopropyl-4-(trifluoromethyl)-1H-imidazol-2-yl)-2^1H-5,8-dioxa-2(6,1)-pyrazolo[3,4-d]pyrimidina-1,4(1,2)-dibenzenacyclooctaphane]
≤ 100 nM | CC(C)n1cc(C(F)(F)F)nc1-c1ccc2c(c1)NCCCOc1ncnc(C3CC3)c1-c1ncc3cnn(c3n1)C2 [Example 8, 1^6-cyclopropyl-4^4-(1-isopropyl-4-(trifluoromethyl)-1H-imidazol-2-yl)-2^1H-9-oxa-5-aza-2(6,1)-pyrazolo[3,4-d]pyrimidina-1(5,4)-pyrimidina-4(1,2)-benzenacyclononaphane]
≤ 100 nM | CC(C)n1cc(C(F)(F)F)nc1-c1ccc2c(c1)CCCOc1ncnc(C3CC3)c1-c1ncc3cnn(c3n1)C2 [Example 9, 1^6-cyclopropyl-4^4-(1-isopropyl-4-(trifluoromethyl)-1H-imidazol-2-yl)-2^1H-8-oxa-2(6,1)-pyrazolo[3,4-d]pyrimidina-1(5,4)-pyrimidina-4(1,2)-benzenacyclooctaphane]
≤ 100 nM | CC(C)n1cc(C(F)(F)F)nc1-c1ccc2c(c1)OCCCNc1c(ncnc1C1CC1)-c1ncc3cnn(c3n1)C2 [Example 10, 1^6-cyclopropyl-4^4-(1-isopropyl-4-(trifluoromethyl)-1H-imidazol-2-yl)-2^1H-5-oxa-9-aza-2(6,1)-pyrazolo[3,4-d]pyrimidina-1(5,4)-pyrimidina-4(1,2)-benzenacyclononaphane]
≤ 100 nM | CC(C)n1cc(C(F)(F)F)nc1-c1ccc2c(c1)OCCNc1ncnc(C3CC3)c1-c1ncc3cnn(c3n1)C2 [Example 11, 1^6-cyclopropyl-4^4-(1-isopropyl-4-(trifluoromethyl)-1H-imidazol-2-yl)-2^1H-5-oxa-8-aza-2(6,1)-pyrazolo[3,4-d]pyrimidina-1(5,4)-pyrimidina-4(1,2)-benzenacyclooctaphane]
≤ 100 nM | FC(F)(F)c1cn(C2CC2)c(-c2ccc3c(c2)OCCOc2ncnc(C4CC4)c2-c2ncc4cnn(c4n2)C3)n1 [Example 13, 1^6-cyclopropyl-4^4-(1-cyclopropyl-4-(trifluoromethyl)-1H-imidazol-2-yl)-2^1H-5,8-dioxa-2(6,1)-pyrazolo[3,4-d]pyrimidina-1(5,4)-pyrimidina-4(1,2)-benzenacyclooctaphane]

— patent US20260285876A1, “MACROCYCLIC COMPOUNDS AS USP1 INHIBITORS” (GUANGDONG NEWOPP BIOPHARMACEUTICALS CO., LTD., priority 2023, published 2026)
